US11377427B2, “Triazoles for regulating intracellular calcium homeostasis” (UNIVERSIDAD DEL PAIS VASCO, priority 2016, dated 2022)

Assays:
[1] = tested on: left ventricle of a rat heart; conditions: concentrations of 10^-6 M; in vitro; without affecting left ventricular heart rate or pressure; cited from earlier work
[2] = tested on: mdx mice; assay: Muscle degeneration/regeneration: percentage of central nuclei in muscle cryosections of mdx mice; format: in vivo, mouse; conditions: 5-week treatment of mdx mice; 0.25 mg/mL in drinking water; FIG. 5
Method: After concluding the 5-week treatment, the tibialis anterior muscle was obtained and processed for subsequent biochemical and immunohistological analysis to determine the degree of muscle damage. Cell-death derived regeneration was determined in muscle cryosections by means of quantifying the percentage of central nuclei using standard immunofluorescence techniques for detecting collagen IV and cell nuclei.

[3] = tested on: fibers isolated from mouse flexor digitorum brevis muscle (dystrophic MDX fibers); assay: Baseline intracellular calcium levels in mouse muscle fibers (Fura 2-AM); format: cell-based; conditions: 150 nM, overnight treatment; FIG. 2
Method: Fibers isolated from mouse flexor digitorum brevis muscle were cultured overnight in the presence or absence of compounds AHK1 and AHK2 at a concentration of 150 nM. Baseline intracellular calcium levels were evaluated by means of incubating the fibers with Fura 2-AM ratiometric fluorochrome (4 μM) and pluronic acid (0.02%) for 30 minutes at 37° C., in the culture medium. The fibers were viewed with a high-resolution digital camera and intracellular [Ca^2+] was estimated by means of a 340 nm/380 nm excitation ratio.

[4] = tested on: mdx mice; assay: Grip strength of dystrophic mdx mice; format: in vivo, mouse; conditions: 0.25 mg/mL in drinking water, one-month old mdx mice
Method: One-month old male dystrophic mdx mice supplied by Jackson Laboratory (https://www.jax.org/strain/001801) were used. The biological assays for measuring the effect of the Ahulken (AHK) compounds on muscle function were performed with one-month old mice, whereas the in vivo assays for determining the effect on the heart and CNS were performed with four-month old mice. The one-month old mice were treated with compound AHK1 or compound AHK2 for 5 weeks, where said compounds were administered in drinking water at a concentration of 0.25 mg/mL. The muscle strength of the front paws was measured every week using a grip strength meter and the obtained value was normalized by the body weight of the animal. To that end, the indications described in the TREAT-NMD Neuromuscular Network protocol (http://www.treat-nmd.eu/downloads/file/sops/dmd/MDX/DMD_M.2.2.001.pdf) were followed.

[5] = tested on: mdx mice; assay: Isoproterenol-induced cardiomyopathy in mdx mice (Evans Blue uptake); format: in vivo, mouse; conditions: four-month old mdx mice; 5-week treatment, 0.25 mg/mL in drinking water; FIG. 8
Method: The myocardium of the four-month old dystrophic mdx mice is highly susceptible to mechanical stress and the compound isoproterenol induces cardiomyopathy in these mice (FIG. 8). Cardiomyocyte sarcolemma integrity was determined by means of measuring the uptake of Evans Blue dye that accumulates in cardiomyocytes with membrane damage. Evans Blue was administered 24 hours before extracting the hearts at a concentration of 10 mg/ml by means of intraperitoneal injection (10 μl/g of body weight). Damage with isoproterenol was carried out by means of 3 sequential intraperitoneal injections of beta-isoproterenol (350 ng/g of body weight) 18, 20 and 22 hours after administering Evans Blue in order to determine the degree of muscle damage. Cell-death derived regeneration was determined in muscle cryosections by means of quantifying the percentage of central nuclei, using standard immunofluorescence techniques for detecting collagen IV and cell nuclei.

[6] = tested on: mdx mice; assay: Exacerbated defense response (freezing) after acute stress in mdx mice; format: in vivo, mouse; conditions: four-month old mdx mice; five-week treatment, 0.25 mg/mL in drinking water; FIG. 7
Method: To determine the effect of the compounds according to the invention on the heart and CNS, four-month old mice were treated for 5 weeks with compound AHK2 in drinking water at a concentration of 0.25 mg/mL. The four-month old mdx mice show an exacerbated defense response after acute stress which is independent of motor, cardiac and respiratory deficiencies, and is controlled by central mechanisms (FIG. 7). Acute stress was brought about by means of manual immobilizations for 15 seconds in a posture commonly used for performing intraperitoneal injections. After acute stress, the mice are monitored for 1 minute and the % of freezing time or tonic immobility periods of at least 1 second with 90% immobility sensitivity is calculated.

[7] = biological target: T1, RyR1-calstabin1 interaction (Homo sapiens, UniProt P21817+P62942); assay: RyR1-calstabin1 interaction by in situ PLA in human myotubes under SIN1 nitro-oxidative stress; format: cell-based; conditions: pre-treated 12 hours at 150 nM; SIN1 5 mM 30 minutes; FIG. 3
T1 construct: endogenous in cells; host or cells: LHCN-M2 human myotubes (differentiated for 9 days)
T1 sequence (P21817 whole entry): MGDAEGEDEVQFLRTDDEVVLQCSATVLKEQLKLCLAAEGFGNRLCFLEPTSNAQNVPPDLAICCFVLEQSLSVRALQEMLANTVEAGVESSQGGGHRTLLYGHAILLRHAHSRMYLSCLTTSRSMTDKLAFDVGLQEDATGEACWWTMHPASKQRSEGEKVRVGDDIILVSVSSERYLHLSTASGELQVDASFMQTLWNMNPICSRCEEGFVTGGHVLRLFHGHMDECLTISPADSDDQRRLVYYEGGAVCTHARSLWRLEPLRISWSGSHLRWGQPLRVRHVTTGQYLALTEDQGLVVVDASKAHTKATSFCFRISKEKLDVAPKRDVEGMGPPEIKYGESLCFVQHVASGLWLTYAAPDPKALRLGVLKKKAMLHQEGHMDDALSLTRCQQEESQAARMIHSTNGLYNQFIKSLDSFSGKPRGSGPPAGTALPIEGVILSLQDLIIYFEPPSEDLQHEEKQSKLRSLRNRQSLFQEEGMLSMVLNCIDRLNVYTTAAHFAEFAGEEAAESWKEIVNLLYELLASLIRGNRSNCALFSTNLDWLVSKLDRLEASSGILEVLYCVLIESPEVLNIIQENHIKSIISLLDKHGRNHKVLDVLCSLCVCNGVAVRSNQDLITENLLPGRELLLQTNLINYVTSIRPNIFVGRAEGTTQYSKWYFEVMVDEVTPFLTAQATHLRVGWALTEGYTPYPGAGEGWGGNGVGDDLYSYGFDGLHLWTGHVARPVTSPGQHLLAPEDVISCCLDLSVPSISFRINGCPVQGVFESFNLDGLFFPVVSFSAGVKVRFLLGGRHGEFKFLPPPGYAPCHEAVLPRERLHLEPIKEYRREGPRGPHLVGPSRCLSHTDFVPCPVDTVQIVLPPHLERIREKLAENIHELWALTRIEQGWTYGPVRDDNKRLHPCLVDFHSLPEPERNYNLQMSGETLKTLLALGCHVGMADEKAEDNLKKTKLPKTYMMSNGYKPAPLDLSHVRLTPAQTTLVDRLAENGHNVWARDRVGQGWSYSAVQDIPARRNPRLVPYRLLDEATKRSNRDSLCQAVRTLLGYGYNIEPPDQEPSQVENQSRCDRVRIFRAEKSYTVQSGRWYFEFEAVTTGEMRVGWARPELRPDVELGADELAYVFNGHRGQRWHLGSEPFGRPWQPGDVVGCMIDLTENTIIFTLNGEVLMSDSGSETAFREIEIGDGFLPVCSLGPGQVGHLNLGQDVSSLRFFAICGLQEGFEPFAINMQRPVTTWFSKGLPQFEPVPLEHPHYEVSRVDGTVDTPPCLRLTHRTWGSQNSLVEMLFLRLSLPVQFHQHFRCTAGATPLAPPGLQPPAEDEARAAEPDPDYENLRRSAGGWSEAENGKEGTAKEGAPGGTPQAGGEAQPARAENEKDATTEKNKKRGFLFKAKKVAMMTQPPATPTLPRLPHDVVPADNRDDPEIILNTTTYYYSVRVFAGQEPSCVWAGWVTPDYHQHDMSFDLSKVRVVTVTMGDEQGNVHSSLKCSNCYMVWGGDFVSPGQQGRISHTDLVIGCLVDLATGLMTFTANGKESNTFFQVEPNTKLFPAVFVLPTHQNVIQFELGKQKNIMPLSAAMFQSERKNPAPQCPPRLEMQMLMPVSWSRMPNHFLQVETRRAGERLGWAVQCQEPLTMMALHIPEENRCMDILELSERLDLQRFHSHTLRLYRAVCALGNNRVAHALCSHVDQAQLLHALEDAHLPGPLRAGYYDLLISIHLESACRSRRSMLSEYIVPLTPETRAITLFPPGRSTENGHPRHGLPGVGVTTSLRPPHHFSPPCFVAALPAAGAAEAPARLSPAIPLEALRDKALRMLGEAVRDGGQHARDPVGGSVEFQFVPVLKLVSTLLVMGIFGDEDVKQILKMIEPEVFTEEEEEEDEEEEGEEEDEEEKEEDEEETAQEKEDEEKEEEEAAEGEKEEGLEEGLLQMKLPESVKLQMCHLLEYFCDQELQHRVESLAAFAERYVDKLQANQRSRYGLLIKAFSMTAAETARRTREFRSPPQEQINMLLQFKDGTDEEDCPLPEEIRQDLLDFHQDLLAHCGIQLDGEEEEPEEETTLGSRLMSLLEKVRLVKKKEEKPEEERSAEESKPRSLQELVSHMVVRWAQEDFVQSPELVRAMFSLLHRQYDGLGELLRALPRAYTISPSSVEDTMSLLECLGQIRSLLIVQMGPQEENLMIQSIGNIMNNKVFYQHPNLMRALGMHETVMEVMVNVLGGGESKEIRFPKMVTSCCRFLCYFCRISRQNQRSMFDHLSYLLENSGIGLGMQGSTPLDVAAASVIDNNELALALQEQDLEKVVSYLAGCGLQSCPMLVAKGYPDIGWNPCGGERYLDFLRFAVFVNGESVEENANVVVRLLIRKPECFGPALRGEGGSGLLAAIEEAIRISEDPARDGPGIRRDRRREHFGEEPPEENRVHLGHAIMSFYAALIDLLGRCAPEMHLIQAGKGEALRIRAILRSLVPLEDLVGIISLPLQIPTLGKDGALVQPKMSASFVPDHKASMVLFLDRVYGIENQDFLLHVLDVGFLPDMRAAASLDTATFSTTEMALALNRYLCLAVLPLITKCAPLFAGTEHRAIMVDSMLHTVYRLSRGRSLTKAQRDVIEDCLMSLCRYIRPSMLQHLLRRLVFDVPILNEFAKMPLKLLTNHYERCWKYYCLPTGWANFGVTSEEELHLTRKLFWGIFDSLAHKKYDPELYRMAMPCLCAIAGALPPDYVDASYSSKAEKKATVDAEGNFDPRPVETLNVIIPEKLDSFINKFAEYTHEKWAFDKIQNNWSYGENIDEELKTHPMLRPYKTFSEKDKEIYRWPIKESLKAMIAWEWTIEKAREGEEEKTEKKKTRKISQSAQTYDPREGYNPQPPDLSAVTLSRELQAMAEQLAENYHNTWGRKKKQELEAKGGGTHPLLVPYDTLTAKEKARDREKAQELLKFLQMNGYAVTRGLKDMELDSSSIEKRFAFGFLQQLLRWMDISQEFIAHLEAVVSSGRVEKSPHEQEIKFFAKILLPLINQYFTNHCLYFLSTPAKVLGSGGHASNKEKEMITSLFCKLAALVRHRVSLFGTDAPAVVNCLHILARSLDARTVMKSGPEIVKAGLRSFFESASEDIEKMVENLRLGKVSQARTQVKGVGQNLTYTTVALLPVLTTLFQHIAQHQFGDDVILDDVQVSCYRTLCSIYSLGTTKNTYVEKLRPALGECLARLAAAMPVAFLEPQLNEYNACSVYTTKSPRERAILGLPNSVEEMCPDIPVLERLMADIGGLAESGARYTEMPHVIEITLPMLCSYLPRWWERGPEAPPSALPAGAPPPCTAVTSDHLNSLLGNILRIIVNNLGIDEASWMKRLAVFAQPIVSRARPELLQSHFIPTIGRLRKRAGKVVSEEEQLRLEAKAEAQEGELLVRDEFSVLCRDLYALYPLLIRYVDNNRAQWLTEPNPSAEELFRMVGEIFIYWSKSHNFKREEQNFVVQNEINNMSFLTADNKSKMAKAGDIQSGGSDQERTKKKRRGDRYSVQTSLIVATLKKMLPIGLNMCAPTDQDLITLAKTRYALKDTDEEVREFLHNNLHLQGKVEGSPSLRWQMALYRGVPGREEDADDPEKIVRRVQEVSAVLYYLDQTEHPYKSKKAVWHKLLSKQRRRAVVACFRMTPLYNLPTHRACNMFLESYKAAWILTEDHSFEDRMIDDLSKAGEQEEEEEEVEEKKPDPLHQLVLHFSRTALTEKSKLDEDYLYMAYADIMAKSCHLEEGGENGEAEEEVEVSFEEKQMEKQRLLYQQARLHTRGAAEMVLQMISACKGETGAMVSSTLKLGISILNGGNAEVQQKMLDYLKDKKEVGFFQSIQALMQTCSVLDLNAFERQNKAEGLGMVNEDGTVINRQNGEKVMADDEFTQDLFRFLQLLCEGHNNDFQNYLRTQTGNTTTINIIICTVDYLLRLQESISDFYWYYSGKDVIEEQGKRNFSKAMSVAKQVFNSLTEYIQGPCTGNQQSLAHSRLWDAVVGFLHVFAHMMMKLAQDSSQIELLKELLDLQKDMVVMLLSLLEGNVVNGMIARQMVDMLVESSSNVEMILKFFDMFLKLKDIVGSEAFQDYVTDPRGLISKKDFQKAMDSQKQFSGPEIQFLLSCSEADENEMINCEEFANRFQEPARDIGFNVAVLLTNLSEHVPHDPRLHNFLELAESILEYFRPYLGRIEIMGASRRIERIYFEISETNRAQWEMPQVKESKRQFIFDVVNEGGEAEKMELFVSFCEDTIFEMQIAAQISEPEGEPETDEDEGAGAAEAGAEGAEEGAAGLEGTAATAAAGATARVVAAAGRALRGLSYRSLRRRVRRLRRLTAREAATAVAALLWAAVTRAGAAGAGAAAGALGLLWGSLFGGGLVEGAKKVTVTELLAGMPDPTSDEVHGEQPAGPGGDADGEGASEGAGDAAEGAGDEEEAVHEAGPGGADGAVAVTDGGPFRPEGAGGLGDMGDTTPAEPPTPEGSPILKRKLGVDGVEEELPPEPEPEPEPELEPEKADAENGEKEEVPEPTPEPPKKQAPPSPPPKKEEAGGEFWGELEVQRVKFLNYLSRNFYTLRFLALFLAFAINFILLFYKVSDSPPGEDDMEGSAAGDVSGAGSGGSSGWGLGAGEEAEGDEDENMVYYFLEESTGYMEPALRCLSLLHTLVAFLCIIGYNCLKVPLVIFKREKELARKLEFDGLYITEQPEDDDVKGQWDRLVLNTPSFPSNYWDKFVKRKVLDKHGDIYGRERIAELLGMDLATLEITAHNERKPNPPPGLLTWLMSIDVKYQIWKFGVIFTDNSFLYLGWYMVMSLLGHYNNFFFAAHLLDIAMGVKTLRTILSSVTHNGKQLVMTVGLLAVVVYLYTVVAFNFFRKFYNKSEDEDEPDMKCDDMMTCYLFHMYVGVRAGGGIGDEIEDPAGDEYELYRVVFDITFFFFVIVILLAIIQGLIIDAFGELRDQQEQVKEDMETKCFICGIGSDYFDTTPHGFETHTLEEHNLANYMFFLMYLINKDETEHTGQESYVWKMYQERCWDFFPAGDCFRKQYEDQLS
T1 sequence (P62942 2-108 limits assumed): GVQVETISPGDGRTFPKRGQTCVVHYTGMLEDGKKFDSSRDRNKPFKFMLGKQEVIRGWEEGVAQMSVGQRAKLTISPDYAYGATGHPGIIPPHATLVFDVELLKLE
Method: This assay was carried out in human control myotubes LHCN-M2 after 9 days in differentiation medium. Said myotubes were pre-treated for 12 hours with compounds AHK1 and AHK2 at a concentration of 150 nM. After treatment, the myotubes were subjected to peroxynitrite-induced nitro-oxidative stress by means of the addition of SIN1 (5 mM) for 30 minutes. RyR1-calstabin colocalization was analyzed by means of the in situ proximity ligation technique (in situ PLA) for which Sigma's Duolink II Network Fluorescence Kit and RyR1- and calstabin 1-specific antibodies were used. This technique allows detecting the exact location of two antigens located at a distance less than 40 nm from one another. To determine RyR1-calstabin-1 colocalization, 3 photographs were quantified for each condition with about 9 myotubes per field, using Image J computer software (http://rsb.info.nih.gov/ij/download.html). The colocalization area in each image was normalized to the myosin expression area, which was determined by means of immunofluorescence with a fluorescein-conjugated specific antibody.

[8] = tested on: human control myotubes LHCN-M2; assay: In vitro toxicity in human myotubes, CytoTox 96 colorimetric assay; format: cell-based; conditions: 24 hours of incubation
Method: These assays were carried out in human control myotubes LHCN-M2 after 14 days in differentiation medium. To determine the toxicity of the different analyzed compounds, particularly AHK1 and AHK2 according to the invention, these compounds were added to the culture medium for 24 hours at 37° C. at different concentrations (0-2 mM). For comparison purposes, the same assay was performed by adding reference compound S-107. Cell viability was determined by means of Cytotox 96 (Promega) colorimetric assay following instructions in the manual.

For “4-[3-(4-benzylpiperidinyl)-propanoyl]-2,3,4,5-tetrahydro-1,4-benzothiazepine [JTV-519]”, which “adrenaline- and caffeine-induced myocardial necrosis” value [1] is on record?
Its value is “inhibits”.

Which “percentage of central nuclei” value [2] does the source give for `COc1ccc(SCc2cn(CCN(C)C)nn2)cc1` [AHK2, 1-[2-(N,N-dimethylamino)ethyl]-4-[4-(methoxy)phenylthiomethyl]-1H-1,2,3-triazole] here?
The value was “significantly reduced”.

What about the “intracellular calcium levels at rest in MDX fibers” value [3] of the same compound?
Its value is “brought intracellular calcium levels back to the control levels”.

What about the “grip strength compared to untreated littermates” value ([4]; after 2 weeks of treatment) of the same compound?
Its value is “increased significantly”.

What about the “increase of muscle strength” value ([4]; after 5 weeks of treatment, FIG. 4) of the same compound?
Its value is 20%.

What about the “cardiomyocyte sarcolemma integrity (Evans Blue uptake)” value [5] of the same compound?
Its value is “increases”.

What about the “isoproterenol-induced damage of the myocardium” value [5] of the same compound?
The value was “protects the myocardium from isoproterenol-induced damage”.

What about the “exacerbated defense response-related CNS phenotype (% of freezing time after acute stress)” value [6] of the same compound?
Its value is “significantly improves”.

And the “dissociation of the RyR1-Calst1 complex in the presence of SIN1” value [7]?
Its value is “partially prevented”.

What about the “in vitro acute toxicity against human myotubes” value ([8]; concentrations between 10 nM and 2 mM, FIG. 1) of the same compound?
Its value is “do not show in vitro acute toxicity”.

Which melting point does the source give for `COc1ccc(SCc2cn(CC(=O)O)nn2)cc1` [Example 11, 1-carboxymethyl-4-[4-(methoxy)phenylthiomethyl]-1H-1,2,3-triazole] here?
Its melting point is 163 to 170 °C.

Which melting point does the source give for `COc1cccc(S(=O)(=O)Cc2cn(CC(=O)O)nn2)c1` [Example 22, 1-carboxymethyl-4-[3-(methoxy)phenylsulfonylmethyl]-1H-1,2,3-triazole] here?
Its melting point is 106 to 115 °C.

Which melting point does the source give for `O=C(O)Cn1cc(CSc2cccc(Cl)c2)nn1` [Example 23, 1-carboxymethyl-4-[3-(chloro)phenylthiomethyl]-1H-1,2,3-triazole] here?
Its melting point is 146 to 148 °C.

Which cellular toxicity ([8]; concentration of 1 mM) does the source give for `COc1ccc2c(c1)CN(C)CCS2` [Example S-107, reference compound] here?
Its cellular toxicity is 100%.
